We go through ten compounds from patent US8288410B2, “3-substituted quinolinium and 7H-indolo[2,3-c]quinolinium salts as new antiinfectives” (Florida Agricultural and Mechanical University, priority 2008, dated 2012).

For data set [1], the system named is Aspergillus fumigatus ATCC 90906. Put plainly: Antifungal susceptibility testing, Aspergillus fumigatus. In kind it is cell-based. Particulars: Table 1; Aspergillus fumigatus. The protocol:
(§1) Using standard susceptibility tests, the compounds of the invention were determined to be active against MRSA, C. neoformans and several other bacteria, fungi and protozoa. More specifically, the antibacterial and antifungal testing was carried out in the following manner. Cryptococcus neoformans ATCC 90113 and MRSA were obtained from the American Type Culture Collection (Manassas. Va.). Several others including Candida albicans ATTC 90028, Aspergillus fumigatus ATCC 90906 and Mycobacterium intracellulare (M. intracellulare) ATCC 23086 were also procured. Susceptibility testing was performed using a modified version of the National Committee for Clinical Laboratory Standards method. M. intracellulare was tested using a modified method of Franzblau, et al., J. Clin. Microbiol., 1998, 36, 362-366. DMSO solutions of samples were serially diluted in saline, and transferred in duplicate to 96 well microplates. Microbial suspensions were diluted in the broth to afford desired colony forming units/mL according to the 0.5 McFarland Standard [C. Albicans: either Saboraud Dextrose broth (SDB) or RPMI 1640, C. neoformans: SDB, A fumigatus: either YM broth (for MICS) or RPMI-1640+5% Alamar Blue.] After adding microbial cultures to the sampled afforded a final volume of 200 μL and final test concentration starting with 20 μg/mL, plates were read prior to and after final incubation using either fluorescence at 544ex/590em (M intracellulare, A. fumigatus) using the Polarstar galaxy reader (Biotek Instruments, Vermont). Growth (saline only), solvent and blank (media only) controls were included on each test plate. Drug controls [Ciprofloxacin (ICN Biomedicals, Ohio) for bacteria and Amphotericin B (ICN Biomedicals, Ohio) for fungi] were included in each assay. Percent growth was calculated and plotted versus test concentration to afford IC50 (sample concentration that affords 50% inhibition or growth of the organism). The minimum inhibitory concentration (MIC) was determined by visually inspecting the plate, and is defined as the lowest test concentration that allows no detectable growth (for Almar Blue assays, no color change from blue to pink).

Data set [2] deals with MRSA. Put plainly: Antibacterial susceptibility testing, MRSA. In kind it is cell-based, methicillin resistant Staphylococcus aureus. Particulars: Table 1. The protocol: as §1
In data set [3] the test system is Cryptococcus neoformans ATCC 90113. In words: Antifungal susceptibility testing, Cryptococcus neoformans. In kind it is cell-based. Particulars: Table 1. The procedure: as §1
Data set [4] concerns Candida albicans ATTC 90028. In words: Antifungal susceptibility testing, Candida albicans. In kind it is cell-based. To be noted: Table 1. The procedure:
as §1

Each structure is given as a SMILES string.

As for `[I-].[O-][S+](c1cc2ccccc2[n+](CCCCCc2ccccc2)c1)c1ccccc1C(F)(F)F` (stereo not shown) [XYZ-IV-90], in data set [1], the “A fu IC50” value is reported as “— ((-) = >20 μg/mL)”, the “A fu MFC” value was “— ((-) = >20 μg/mL)” and the “A fu MIC” value is listed as “— ((-) = >20 μg/mL)”. In data set [2], the “MRS IC50” value came out at 0.25 µg/mL, the “MRS MFC” value turned out to be 10 µg/mL and the “MRS MIC” value turned out to be 0.63 µg/mL. Further, in data set [3], the “Cn IC50” value came to 5.5 µg/mL, the “Cn MFC” value is on record as “— ((-) = >20 μg/mL)” and the “Cn MIC” value is 20 µg/mL. In data set [4], the “Ca IC50” value was determined as 15 µg/mL, the “Ca MFC” value is “— ((-) = >20 μg/mL)” and the “Ca MIC” value is listed as “— ((-) = >20 μg/mL)”.
On to `[I-].[O-][S+](c1cc2ccccc2[n+](CCCCCc2ccccc2)c1)c1ccccc1Br` (stereo not shown) [XYZ-IV-98], for which, in data set [1], the “A fu IC50” value was 15 µg/mL, the “A fu MFC” value is listed as “— ((-) = >20 μg/mL)” and the “A fu MIC” value is listed as “— ((-) = >20 μg/mL)”. Also, in data set [2], the “MRS IC50” value turned out to be 0.35 µg/mL, the “MRS MFC” value was “— ((-) = >20 μg/mL)” and the “MRS MIC” value came to 1.3 µg/mL. Also, in data set [3], the “Cn IC50” value came to 5.5 µg/mL, the “Cn MFC” value is recorded as “— ((-) = >20 μg/mL)” and the “Cn MIC” value worked out at 20 µg/mL. Besides, in data set [4], the “Ca IC50” value is “— ((-) = >20 μg/mL)”, the “Ca MFC” value is recorded as “— ((-) = >20 μg/mL)” and the “Ca MIC” value is listed as “— ((-) = >20 μg/mL)”.
In the case of `[I-].[O-][S+](c1cc2ccccc2[n+](CCCCCc2ccccc2)c1)c1ccccc1F` (stereo not shown) [XYZ-IV-100], in data set [1], the “A fu IC50” value is reported as “— ((-) = >20 μg/mL)”, the “A fu MFC” value is “— ((-) = >20 μg/mL)” and the “A fu MIC” value is “— ((-) = >20 μg/mL)”. For the same compound, in data set [2], the “MRS IC50” value turned out to be 1.5 µg/mL, the “MRS MFC” value is listed as “— ((-) = >20 μg/mL)” and the “MRS MIC” value turned out to be 5.0 µg/mL. In data set [3], the “Cn MFC” value is “— ((-) = >20 μg/mL)” and the “Cn MIC” value is on record as “— ((-) = >20 μg/mL)”. In data set [4], the “Ca IC50” value is on record as “— ((-) = >20 μg/mL)”, the “Ca MFC” value is reported as “— ((-) = >20 μg/mL)” and the “Ca MIC” value was “— ((-) = >20 μg/mL)”.
On to `[I-].[O-][S+](c1cc2ccccc2[n+](CCCCCc2ccccc2)c1)c1ccccc1Cl` (stereo not shown) [XYZ-V-9], for which, in data set [1], the “A fu IC50” value is given as “— ((-) = >20 μg/mL)”, the “A fu MFC” value is listed as “— ((-) = >20 μg/mL)” and the “A fu MIC” value is listed as “— ((-) = >20 μg/mL)”. In addition, in data set [2], the “MRS IC50” value is 0.75 µg/mL, the “MRS MFC” value is “— ((-) = >20 μg/mL)” and the “MRS MIC” value came to 2.5 µg/mL. For the same compound, in data set [3], the “Cn IC50” value was determined as 10 µg/mL, the “Cn MFC” value was “— ((-) = >20 μg/mL)” and the “Cn MIC” value worked out at 20 µg/mL. In addition, in data set [4], the “Ca IC50” value is recorded as “— ((-) = >20 μg/mL)”, the “Ca MFC” value is given as “— ((-) = >20 μg/mL)” and the “Ca MIC” value is given as “— ((-) = >20 μg/mL)”.
With `[I-].[O-][S+](c1cc(C(F)(F)F)cc(C(F)(F)F)c1)c1cc2ccccc2[n+](CCCCCc2ccccc2)c1` (stereo not shown) [XYZ-V-13], in data set [1], the “A fu IC50” value is recorded as “— ((-) = >20 μg/mL)”, the “A fu MFC” value was “— ((-) = >20 μg/mL)” and the “A fu MIC” value is reported as “— ((-) = >20 μg/mL)”. In data set [2], the “MRS IC50” value was 0.20 µg/mL, the “MRS MFC” value turned out to be 10 µg/mL and the “MRS MIC” value amounted to 0.63 µg/mL. Moreover, in data set [3], the “Cn IC50” value was determined as 3.0 µg/mL, the “Cn MFC” value is 20 µg/mL and the “Cn MIC” value stood at 5.0 µg/mL. Further, in data set [4], the “Ca IC50” value came to 10 µg/mL, the “Ca MFC” value was 20 µg/mL and the “Ca MIC” value came out at 20 µg/mL.
With `[I-].[O-][S+](c1ccc(Br)cc1)c1cc2ccccc2[n+](CCCCCc2ccccc2)c1` (stereo not shown) [XYZ-V-20], in data set [1], the “A fu IC50” value is given as “— ((-) = >20 μg/mL)”, the “A fu MFC” value is listed as “— ((-) = >20 μg/mL)” and the “A fu MIC” value is given as “— ((-) = >20 μg/mL)”. Besides, in data set [2], the “MRS IC50” value was determined as 0.50 µg/mL, the “MRS MFC” value was “— ((-) = >20 μg/mL)” and the “MRS MIC” value came out at 2.5 µg/mL. Besides, in data set [3], the “Cn IC50” value was 7.0 µg/mL, the “Cn MFC” value is “— ((-) = >20 μg/mL)” and the “Cn MIC” value amounted to 10 µg/mL. In data set [4], the “Ca IC50” value is “— ((-) = >20 μg/mL)”, the “Ca MFC” value is “— ((-) = >20 μg/mL)” and the “Ca MIC” value is “— ((-) = >20 μg/mL)”.
Turning to `COc1ccc([S+]([O-])c2cc3ccccc3[n+](CCCCCc3ccccc3)c2)cc1.[I-]` (stereo not shown) [XYZ-V-21], in data set [1], the “A fu IC50” value is given as “— ((-) = >20 μg/mL)”, the “A fu MFC” value is listed as “— ((-) = >20 μg/mL)” and the “A fu MIC” value is reported as “— ((-) = >20 μg/mL)”. In data set [2], the “MRS IC50” value was found to be 7.00 µg/mL, the “MRS MFC” value was “— ((-) = >20 μg/mL)” and the “MRS MIC” value was 20 µg/mL. In data set [3], the “Cn IC50” value is given as “— ((-) = >20 μg/mL)”, the “Cn MFC” value was “— ((-) = >20 μg/mL)” and the “Cn MIC” value is reported as “— ((-) = >20 μg/mL)”. Moreover, in data set [4], the “Ca IC50” value is “— ((-) = >20 μg/mL)”, the “Ca MFC” value is recorded as “— ((-) = >20 μg/mL)” and the “Ca MIC” value is recorded as “— ((-) = >20 μg/mL)”.
In the case of `COc1cccc([S+]([O-])c2cc3ccccc3[n+](CCCCCc3ccccc3)c2)c1.[I-]` (stereo not shown) [XYZ-V-23], in data set [1], the “A fu IC50” value is on record as “— ((-) = >20 μg/mL)”, the “A fu MFC” value is “— ((-) = >20 μg/mL)” and the “A fu MIC” value is “— ((-) = >20 μg/mL)”. In addition, in data set [2], the “MRS IC50” value was determined as 2.50 µg/mL, the “MRS MFC” value is “— ((-) = >20 μg/mL)” and the “MRS MIC” value was determined as 10 µg/mL. For the same compound, in data set [3], the “Cn MFC” value is given as “— ((-) = >20 μg/mL)” and the “Cn MIC” value is listed as “— ((-) = >20 μg/mL)”. Further, in data set [4], the “Ca IC50” value is given as “— ((-) = >20 μg/mL)”, the “Ca MFC” value is reported as “— ((-) = >20 μg/mL)” and the “Ca MIC” value is recorded as “— ((-) = >20 μg/mL)”.
With `[I-].[O-][S+](c1ccc(C(F)(F)F)cc1)c1cc2ccccc2[n+](CCCCCc2ccccc2)c1` (stereo not shown) [XYZ-V-27], in data set [1], the “A fu IC50” value is given as “— ((-) = >20 μg/mL)”, the “A fu MFC” value is “— ((-) = >20 μg/mL)” and the “A fu MIC” value is listed as “— ((-) = >20 μg/mL)”. Also, in data set [2], the “MRS IC50” value came to 0.50 µg/mL, the “MRS MFC” value was “— ((-) = >20 μg/mL)” and the “MRS MIC” value was 1.3 µg/mL. In data set [3], the “Cn IC50” value stood at 6.0 µg/mL, the “Cn MFC” value was 20 µg/mL and the “Cn MIC” value came out at 10 µg/mL. In data set [4], the “Ca IC50” value was “— ((-) = >20 μg/mL)”, the “Ca MFC” value is “— ((-) = >20 μg/mL)” and the “Ca MIC” value is “— ((-) = >20 μg/mL)”.
`[I-].[O-][S+](c1cccc(Br)c1)c1cc2ccccc2[n+](CCCCCc2ccccc2)c1` (stereo not shown) [XYZ-V-29]: in data set [1], the “A fu IC50” value is “— ((-) = >20 μg/mL)”, the “A fu MFC” value is “— ((-) = >20 μg/mL)” and the “A fu MIC” value was “— ((-) = >20 μg/mL)”. In addition, in data set [2], the “MRS IC50” value came to 0.90 µg/mL, the “MRS MFC” value is on record as “— ((-) = >20 μg/mL)” and the “MRS MIC” value was 2.5 µg/mL. Also, in data set [3], the “Cn IC50” value amounted to 5.5 µg/mL, the “Cn MFC” value came out at 20 µg/mL and the “Cn MIC” value amounted to 10 µg/mL. In addition, in data set [4], the “Ca IC50” value is reported as “— ((-) = >20 μg/mL)”, the “Ca MFC” value is given as “— ((-) = >20 μg/mL)” and the “Ca MIC” value was “— ((-) = >20 μg/mL)”.
